According to US6693120B1, “Spray drying of thrombin inhibitors” (Abbott GmbH & Co. KG, priority 1999, dated 2004):

Legend:
Format in all cases: physicochemical
[1] = Storage stability at 70° C., 1 bar in an open vessel (HPLC)
[2] = Hygroscopicity: weight gain on storage in desiccators at constant humidity; parameters: unit not given here; conditions: vacuum-dried
Description: To determine the hygroscopicity, samples of the dry active substance are stored in desiccators in which a constant humidity has been set by saturated salt solutions, at constant temperature. The weight change is determined by weighing at intervals of a few days. The weight gain is determined by the following formula: [formula]

[3] = HPLC content of the active substance after drying

For “N-((Hydroxycarbonyl)methylen)-(R)-cyclohexylalanyl-(S)-3,4-dehydroproline 6-Amidino-3-picolinylamide Dihydrochloride [Betaine × 2HCl]”, which “active substance content based on initial active substance content” value (shortened to “active substance content based”) ([1]; 0 days) is on record?
Its value is 100 HPLC % areas.

And the “active substance content based” value ([1]; 7 days)?
Its value is 99.7 HPLC % areas.

And the “active substance content based” value ([1]; 14 days)?
The value was 99.7 HPLC % areas.

What does the source list for “N-((Hydroxycarbonyl)methylene)-(R)-cyclohexylalanyl-(S)-3,4-dehydroproline 6-Amidino-3-Picoli-nylamide [Betaine (n = 0)]”?
active substance content based on initial active substance content ([1]; 0 days): 100 HPLC % areas; active substance content based on initial active substance content ([1]; 7 days): 92.5 HPLC % areas; active substance content based on initial active substance content ([1]; 14 days): 88.6 HPLC % areas

Which weight gain ([2]; 45% R.H., 0 days) does the source give for “N-((Hydroxycarbonyl)methylene)-(R)-cyclohexylalanyl-(S)-3,4-dehydroproline 6-Amidino-3-picolinylamide Hydrochloride [Betaine × HCl]” here?
Its weight gain is 0.

What about the weight gain ([2]; 45% R.H., 3 days) of the same substance?
Its weight gain is 0.28.

And the weight gain ([2]; 45% R.H., 6 days)?
Its weight gain is 0.31.

What about the weight gain ([2]; 45% R.H., 9 days) of the same substance?
The weight gain was 0.26.

What about the weight gain ([2]; 45% R.H., 14 days) of the same substance?
The weight gain was 0.23.

What about the weight gain ([2]; 45% R.H., 21 days) of the same substance?
The weight gain was 0.26.

And the weight gain ([2]; 65% R.H., 0 days)?
The weight gain was 0.

What about the weight gain ([2]; 65% R.H., 3 days) of the same substance?
The weight gain was 3.50.

And the weight gain ([2]; 65% R.H., 6 days)?
Its weight gain is 3.86.

What about the weight gain ([2]; 65% R.H., 9 days) of the same substance?
Its weight gain is 3.59.

What about the weight gain ([2]; 65% R.H., 14 days) of the same substance?
Its weight gain is 3.54.

What about the weight gain ([2]; 65% R.H., 21 days) of the same substance?
Its weight gain is 3.45.

And the weight gain ([2]; 75% R.H., 0 days)?
The weight gain was 0.

What about the weight gain ([2]; 75% R.H., 3 days) of the same substance?
The weight gain was 7.60.

What about the weight gain ([2]; 75% R.H., 6 days) of the same substance?
The weight gain was 9.31.

What about the weight gain ([2]; 75% R.H., 9 days) of the same substance?
Its weight gain is 7.98.

And the weight gain ([2]; 75% R.H., 14 days)?
Its weight gain is 7.84.

What about the weight gain ([2]; 75% R.H., 21 days) of the same substance?
Its weight gain is 7.86.

What about the weight gain ([2]; 86% R.H., 0 days) of the same substance?
The weight gain was 0.

And the weight gain ([2]; 86% R.H., 3 days)?
The weight gain was 15.51.

What about the weight gain ([2]; 86% R.H., 6 days) of the same substance?
The weight gain was 20.23.

What about the weight gain ([2]; 86% R.H., 9 days) of the same substance?
The weight gain was 16.66.

And the weight gain ([2]; 86% R.H., 14 days)?
The weight gain was 16.61.

And the weight gain ([2]; 86% R.H., 21 days)?
Its weight gain is 16.14.

And the weight gain ([2]; 93% R.H., 0 days)?
The weight gain was 0.

And the weight gain ([2]; 93% R.H., 3 days)?
Its weight gain is 19.73.

And the weight gain ([2]; 93% R.H., 6 days)?
The weight gain was 20.34.

And the weight gain ([2]; 93% R.H., 9 days)?
The weight gain was 18.97.

And the weight gain ([2]; 93% R.H., 14 days)?
Its weight gain is 19.11.

And the weight gain ([2]; 93% R.H., 21 days)?
The weight gain was 18.78.

What about the “active substance content based” value ([1]; 0 days) of the same substance?
Its value is 100 HPLC % areas.

And the “active substance content based” value ([1]; 7 days)?
The value was 98.5 HPLC % areas.

What about the “active substance content based” value ([1]; 14 days) of the same substance?
Its value is 97.5 HPLC % areas.

What about the “HPLC content of the active substance in % areas” value ([3]; spray dried) of the same substance?
Its value is 98.5%.

And the byproducts ([3]; spray dried)?
Its byproducts is “no additional”.

What about the “HPLC content of the active substance in % areas” value ([3]; vacuum dried (60° C./12 h)) of the same substance?
Its value is 97.8%.

What about the byproducts ([3]; vacuum dried (60° C./12 h)) of the same substance?
The byproducts was “additional byproducts”.
